Like-named read-outs stand apart in the source and are kept apart here.
Experiments:
[1] = tested on: male long tailed mealybugs (P. longispinus); assay: Field bioassay of the pheromone enantiomers and the racemate (delta sticky traps); assay type: in vivo, Pseudococcus longispinus; settings: for attractiveness to male mealybugs (trap catches): traps 6 d + 11 d
Description: FIG. 1 depicts Male long tailed mealybugs caught in traps baited with each of the enantiomers of the pheromone, and the racemate. No mealybugs were caught in solvent treated controls.
(The field trials on vineyards were conducted with the help of Prof. Jocelyn Millar, University of California, Riverside, USA)
A field bioassay of the pheromone was conducted at a nursery in Bonsall, Calif., USA, in a 0.49 ha plot of Ruscus hypoglossum L. (plot coordinates: 33°17′18.36″ N, 117°16′55.61″ W elev 113 m) that was known to be infested with P. longispinus. The plot was divided into seven hoop houses (63 m long×7 m wide), six of which were used in this study. Each house (block) was covered in plastic with open ends. Airflow between houses was not restricted because the plastic cover began 1 m above the plant canopy. Four delta sticky traps were spaced every 12.5 m along a transect within each house, suspended directly above the ruscus canopy. Each trap contained an 11 mm gray rubber septum impregnated with a hexane solution of one of four treatments: solvent control, 5 μg of (S)-(+)-enantiomer, 5 μg of (R)-(−)-enantiomer, 10 μg of the racemate. Treatments were assigned randomly along each transect. Traps were replaced, and treatments were repositioned once after 6 d. Traps remained in place for another 11 d. Trap count data were analyzed by analysis of variance after √(x+0.5) transformation of the data to meet the assumptions of normality and equal variances. Differences among means were tested using Tukey's honestly significant differences (HSD) test. There was no significant interaction between the two sampling periods (date) and the treatments (F=3.23, df=2, 30, and P=0.054). Thus, data for each date were combined for the final analysis. There was both a significant effect of date (F=10.19, df=2, 32, P=0.0032) and treatment (F=130.04, df=2, 32, P<0.0001). Controls were not included in the analysis because their zero values and lack of variance violate the assumptions of ANOVA.

[2] = tested on: male mealybugs (long-tailed mealybug); settings: 25 μg, field trials, cited from earlier work
[3] = 5 μg enantiomer on rubber septum in delta sticky trap, nursery plot of Ruscus hypoglossum

SMILES	attractiveness to male mealybugs (trap catches) ([1]; 10 μg of the racemate on rubber septum in delta sticky trap)	attractiveness to male mealybugs and its duration ([2]; listed as racemic form of the pheromone)	attractiveness to male mealybugs and its duration ([2]; listed as racemic pheromone)	attractiveness to male mealybugs (trap catches) [1, 3]	inhibitory effect of the enantiomer on attraction ([1]; inferred from racemate (10 μg) versus pure enantiomer (5 μg))	attractiveness to male mealybugs (trap catches) ([1]; 5 μg enantiomer on rubber septum in delta sticky trap, nursery plot of Ruscus hypoglossum, listed as (+)1)
CC(=O)OCCC1(C)C=CCC1(C)C (racemic) [racemate (±1), 2-(1,5,5-trimethylcyclopent-2-en-1-yl) ethyl acetate]	as attractive as the pure enantiomer	sufficient to attract mealy bug for three months	highly attractive to male mealybugs for more than three months	–	–	–
CC(=O)OCC[C@]1(C)C=CCC1(C)C [(R)-(−)-enantiomer, (−) 2-(1,5,5-trimethylcyclopent-2-en-1-yl)ethyl acetate]	–	–	–	only slightly more attractive than solvent-treated controls	not inhibitory	–
CC(=O)OCC[C@@]1(C)C=CCC1(C)C [(S)-(+)-enantiomer, (+) 2-(1,5,5-trimethylcyclopent-2-en-1-yl)ethyl acetate]	–	–	–	highly attractive	–	more activity than racemic pheromone

Reference: patent US9598346B2, “Enantioselective process for the preparation of enantiomers of sex pheromones” (COUNCIL OF SCIENTIFIC AND INDUSTRIAL RESEARCH, priority 2013, dated 2017)
